These are literature values, as cited in patent US12297161B2, “Process for making sarecycline hydrochloride” (PARATEK PHARMACEUTICALS, INC., priority 2018, dated 2025).

The conditions of series [1]: in vivo.
The subject of series [2] is aerobic Gram-negative gastrointestinal (GI) organisms. The following applies: compared with minocycline and doxycycline.

`CON(C)Cc1ccc(O)c2c1C[C@H]1C[C@H]3[C@H](N(C)C)C(O)=C(C(N)=O)C(=O)[C@@]3(O)C(O)=C1C2=O` [Sarecycline, (4S, 4aS, 5aR, 12aS)-4-dimethylamino-3, 10, 12, 12a-tetrahydroxy-7-[(methoxy (methyl)amino)-methyl]-1, 11-dioxo-1,4,4a, 5,5a, 6, 11, 12a-octahydro-naphthacene-2-carboxylic acid amide]: the “inflammatory lesions of moderate to severe acne vulgaris” value in series [1] is on record as “reduce inflammatory lesions”. In addition, the “antibacterial activity against aerobic Gram-negative gastrointestinal (GI) organisms” value in series [2] was “more limited activity against aerobic Gram-negative gastrointestinal (GI) organisms than minocycline and doxycycline”.
